{"source": "patent US20250186458A1", "about": "“METHODS FOR THE TREATMENT OF MILD COGNITIVE IMPAIRMENT” (BIOVIE INC., priority 2022, published 2025)", "key": {"[1]": {"test_system": "patients with mild or moderate dementia", "assay": "Exploratory Phase 2 trial NE3107-TRP-001 (ADAS-Cog 11, GRC, PHQ-9)", "assay_type": "in vivo, human", "design": "key to ADAS-Cog-11 score at 3M: ADAS-Cog11 score 0-70; higher = more severe cognitive impairment", "conditions": "for Patient Global Rating of Change (GRC): Month 3, scale −5 to 5; for ADAS-Cog-11 Change: baseline to 3M, decrease = improvement", "experimental": "An exploratory Phase 2 trial of 17α-ethynylandrost-5-ene-3β,7β,17β-triol (NE3107-TRP-001) in 23 patients with mild (n=17) or moderate dementia (n=6) were conducted. Comparisons between baseline and post-intervention (3 months) were evaluated via multi-modal brain magnetic resonance images (MRIs; primary endpoints), measures of glucose and insulin homeostasis, and neuropsychological testing (secondary endpoints).\nThe interview results were compared with changes from baseline to Month 3 in cognitive functioning as measured by the ADAS-Cog11, and the patient-completed Global Rating of Change (GRC) at Month 3 in the Phase 2 trial (Table 8).\nThe ADAS-Cog 11 is a performance-based assessment of cognitive function that includes 11 patient-completed tasks that measure word recall, objective/figure naming, command following, constructional praxis, ideational praxis, orientation, word recognition, test direction recall, spoken language, comprehension, and word-finding difficulty. Scores range from 0-70 where higher scores indicate more severe cognitive impairment (i.e., decreases in score over time indicate improvement in cognition). The GRC is a single item that asks patients to rate changes in their condition, abilities, and overall sense of well-being from the start of the trial. Scores range from −5 (“Very much worse”) to 0 (“Unchanged”) to +5 (“Very much better”)."}, "[2]": {"test_system": "patients with degenerative dementia", "assay": "Exit interviews with patients who completed NE3107-TRP-001", "assay_type": "in vivo, human", "experimental": "The exit interviews were conducted in the US with 11 adult patients/study partners who completed the Phase 2 trial of NE3107. Participants (patients and study partners) completed one 60-minute semi-structured interview via remote videoconference to facilitate face-to-face communication.\nEach interview was divided into four parts: 1) elicitation of experience with degenerative dementia, 2) changes due to treatment with NE3107 and meaningfulness of those changes, 3) experience with NE3107 during the trial, and, if applicable, 4) study partner perceptions of the patient's changes during the trial and their trial experience.\nInterviews took place via videoconference with a trained and experienced interviewers using a semi-structured interview guide. Participants were required to confirm that they signed the ICF for the exit interview, and provide permission to record the interview. The interviews lasted approximately 60 minutes. Open-ended questions were used to characterize the participant's experience with degenerative dementia. Three overarching topics were covered: 1) degenerative dementia signs and symptoms prior to the trial, 2) changes experienced during the trial, and 3) experience with the trial medication (NE3107). Interviewers noted spontaneously reported changes experienced during the trial and followed up with probes (as needed) to elicit the full range of changes experienced.\nIf both the patient and study partner participated, the patient was interviewed first with the study partner present. Following the patient interview, the study partner was interviewed without the patient present. Interviewers were instructed to direct the questions towards the patient and to remind the study partner that they would have an opportunity to add information or different perspectives at the end.\nThe coding and analysis of the interview transcripts followed principles in line with qualitative thematic (content) analysis (Braun et al. 2019), with additional features drawn from grounded theory (Bryant and Charmaz 2007; Strauss and Corbin 1998). This approach conforms to best practices in the field (Patrick et al. 2011). A saturation table was developed during the coding process and updated after each interview to ensure that the interviews provided sufficient quality and quantity of data to support the study goals. The focus of saturation was changes due to treatment.\nDuring the interviews, patients were asked open-ended questions about any changes they experienced as a result of being treated with NE3107. Patients reported 14 unique change-related concepts related that were categorized as follows: cognitive (2 concepts), psychological (4 concepts), behavioral (2 concepts), physical (5 concepts), and no change (1 concept) (Table 3)."}}}
{"smiles": "C#C[C@]1(O)CC[C@H]2[C@@H]3[C@@H](O)C=C4C[C@@H](O)CC[C@]4(C)[C@H]3CC[C@@]21C", "note": "[17α-ethynylandrost-5-ene-3β,7β,17β-triol, 17-ethynyl-10R, 13S-dimethyl 2,3,4,7, 8R, 9S, 10, 11, 12, 13, 14S, 15, 16, 17-hexadecahydro-1H-cyclopenta[a]phenanthrene-3R, 7R, 17S-triol]", "values": [{"measurement": "increase in ADAS-Cog 11 score, where not decreased", "setting": "[1]; all interviewed patients, 3-month follow up, 3.1 to 3.8 points = clinically significant worsening", "value": "< 3.1", "unit": "points"}, {"measurement": "mean PHQ-9 score decrease", "setting": "[1]; change from baseline", "value": 4.3, "unit": "points"}, {"measurement": "improvement in depression symptoms (PHQ-9)", "setting": "[1]; patients with baseline PHQ-9 score ≥5", "value": "greatest improvement in depression symptoms"}, {"measurement": "individual PHQ-9 domains (apathy, depressive symptoms, sleep disturbance, fatigue, eating disorders, low self-esteem)", "setting": "[1]; patients with baseline PHQ-9 score ≥5 compared to all patients", "value": "greater improvement, compared to all patients"}, {"measurement": "Global Rating of Change (GRC)", "setting": "[1]; patients with mild dementia, 3 months", "value": "improvements on the Global Rating of Change"}, {"measurement": "ADAS-Cog 11 decrease", "setting": "[1]; patients with mild dementia, baseline vs 3 months, p=0.0046", "value": 2.6, "unit": "point"}, {"measurement": "Patient Global Rating of Change (GRC)", "setting": "[1]; subject N-02-22", "value": "−5"}, {"measurement": "ADAS-Cog-11 score at 3M", "setting": "[1]; subject N-02-22, baseline 5.00", "value": 5.67}, {"measurement": "ADAS-Cog-11 Change", "setting": "[1]; subject N-02-22", "value": "+0.67"}, {"measurement": "Patient Global Rating of Change (GRC)", "setting": "[1]; subject N-03-22", "value": 3.5}, {"measurement": "ADAS-Cog-11 score at 3M", "setting": "[1]; subject N-03-22, baseline 11.33", "value": 6.00}, {"measurement": "ADAS-Cog-11 Change", "setting": "[1]; subject N-03-22", "value": "−5.33"}, {"measurement": "Patient Global Rating of Change (GRC)", "setting": "[1]; subject N-07-22", "value": 1}, {"measurement": "ADAS-Cog-11 score at 3M", "setting": "[1]; subject N-07-22, baseline 19.33", "value": 14.67}, {"measurement": "ADAS-Cog-11 Change", "setting": "[1]; subject N-07-22", "value": "−4.67"}, {"measurement": "Comparison (ADAS-Cog 11/GRC/Interview)", "setting": "[1]; subject N-10-22", "value": "+/−/NC"}, {"measurement": "Patient Global Rating of Change (GRC)", "setting": "[1]; subject N-10-22", "value": "−1"}, {"measurement": "ADAS-Cog-11 score at 3M", "setting": "[1]; subject N-10-22, baseline 5.00", "value": 2.33}, {"measurement": "ADAS-Cog-11 Change", "setting": "[1]; subject N-10-22", "value": "−2.67"}, {"measurement": "Comparison (ADAS-Cog 11/GRC/Interview)", "setting": "[1]; subject N-14-22", "value": "+/+/NC"}, {"measurement": "Patient Global Rating of Change (GRC)", "setting": "[1]; subject N-14-22", "value": 2}, {"measurement": "ADAS-Cog-11 score at 3M", "setting": "[1]; subject N-14-22, baseline 14.00", "value": 9.00}, {"measurement": "ADAS-Cog-11 Change", "setting": "[1]; subject N-14-22", "value": "−5.00"}, {"measurement": "Patient Global Rating of Change (GRC)", "setting": "[1]; subject N-16-22", "value": 4}, {"measurement": "ADAS-Cog-11 score at 3M", "setting": "[1]; subject N-16-22, baseline 21.00", "value": 11.00}, {"measurement": "ADAS-Cog-11 Change", "setting": "[1]; subject N-16-22", "value": "−10.00"}, {"measurement": "Patient Global Rating of Change (GRC)", "setting": "[1]; subject N-17-22", "value": 4}, {"measurement": "ADAS-Cog-11 score at 3M", "setting": "[1]; subject N-17-22, baseline 6.67", "value": 9.33}, {"measurement": "ADAS-Cog-11 Change", "setting": "[1]; subject N-17-22", "value": "+2.67"}, {"measurement": "Patient Global Rating of Change (GRC)", "setting": "[1]; subject N-18-22", "value": 4}, {"measurement": "ADAS-Cog-11 score at 3M", "setting": "[1]; subject N-18-22, baseline 10.00", "value": 8.67}, {"measurement": "ADAS-Cog-11 Change", "setting": "[1]; subject N-18-22", "value": "−1.33"}, {"measurement": "Patient Global Rating of Change (GRC)", "setting": "[1]; subject N-20-22", "value": 3}, {"measurement": "ADAS-Cog-11 score at 3M", "setting": "[1]; subject N-20-22, baseline 4.00", "value": 3.33}, {"measurement": "ADAS-Cog-11 Change", "setting": "[1]; subject N-20-22", "value": "−0.67"}, {"measurement": "Patient Global Rating of Change (GRC)", "setting": "[1]; subject N-22-22", "value": 5}, {"measurement": "ADAS-Cog-11 score at 3M", "setting": "[1]; subject N-22-22, baseline 27.67", "value": 29.00}, {"measurement": "ADAS-Cog-11 Change", "setting": "[1]; subject N-22-22", "value": "+1.33"}, {"measurement": "Patient Global Rating of Change (GRC)", "setting": "[1]; subject N-23-22", "value": 3}, {"measurement": "ADAS-Cog-11 score at 3M", "setting": "[1]; subject N-23-22, baseline 9.33", "value": 10.00}, {"measurement": "ADAS-Cog-11 Change", "setting": "[1]; subject N-23-22", "value": "+0.67"}, {"measurement": "average number of positive changes per patient who improved", "setting": "[2]; SD=1.86, range 1-7", "value": 4.7}, {"measurement": "Change due to treatment reported by patients: No Change", "setting": "[2]; exit interviews, N = 11", "value": 2, "unit": "n"}, {"measurement": "patients who experienced no change", "setting": "[2]; exit interviews, N = 11, figure in brackets after the count", "value": 15.4}, {"measurement": "Change due to treatment reported by patients: No Change", "setting": "[2]; exit interviews, N = 11, listed as NE3107", "value": "two"}, {"measurement": "Cognitive Change from Interview (Memory or Clarity)", "setting": "[2]; subject N-02-22", "value": "Improvement"}, {"measurement": "Cognitive Change from Interview (Memory or Clarity)", "setting": "[2]; subject N-03-22", "value": "Improvement"}, {"measurement": "Cognitive Change from Interview (Memory or Clarity)", "setting": "[2]; subject N-07-22", "value": "Improvement"}, {"measurement": "Cognitive Change from Interview (Memory or Clarity)", "setting": "[2]; subject N-10-22", "value": "No Change"}, {"measurement": "Cognitive Change from Interview (Memory or Clarity)", "setting": "[2]; subject N-14-22", "value": "No Change"}, {"measurement": "Cognitive Change from Interview (Memory or Clarity)", "setting": "[2]; subject N-16-22", "value": "Improvement"}, {"measurement": "Cognitive Change from Interview (Memory or Clarity)", "setting": "[2]; subject N-17-22", "value": "Improvement"}, {"measurement": "Cognitive Change from Interview (Memory or Clarity)", "setting": "[2]; subject N-18-22", "value": "Improvement"}, {"measurement": "Cognitive Change from Interview (Memory or Clarity)", "setting": "[2]; subject N-20-22", "value": "Improvement"}, {"measurement": "Cognitive Change from Interview (Memory or Clarity)", "setting": "[2]; subject N-22-22", "value": "Improvement"}, {"measurement": "Cognitive Change from Interview (Memory or Clarity)", "setting": "[2]; subject N-23-22", "value": "Improvement"}]}
